# In PubChem BioAssay AID776 (The Scripps Research Institute Molecular Screening Center, 2007):
# Activity calls are given as the source filed them.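 Rule for the calls: active = compounds whose IC50 for cutting the S1P-driven reporter signal is at most 40 micromolar; inactive = IC50 above 40 micromolar.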
# Biological target: CHO S1P3/Ga15 NFAT-beta-lactamase reporter, FRET
# Test: S1P3 receptor NFAT-BLA reporter inhibition, dose response, counter-screen for 5HT1E antagonist project, CHO cells, Ga15, NFAT beta-lactamase, FRET (AID 776)
row,Compound,IC50
1,CC(=O)Oc1ccc(N2C(=O)C3C(C2=O)C2(C)C=CC3(C)O2)cc1 (stereo not given),7.56 µM
2,COc1ccc(N2C(=O)CC(NCc3ccncc3)C2=O)cc1 (stereo not given),> 50 µM (inactive)

# Further lines, results first:
row,IC50,Compound
1,> 12.4 µM (inactive),O=C1C2C3C=CC(CO)(O3)C2C(=O)N1c1ccc(-c2ccccc2)cc1 (stereo not given)
2,4.33 µM,CSc1ccccc1N=CC1=C(O)CC(C)(C)CC1=O
3,> 50 µM (inactive),COc1cc2c(cc1OC)C1=C(C#N)CC/C(=N\S(=O)(=O)c3ccccc3)N1CC2
